For five compounds, IC50 results are on record in the Kinase Knowledgebase extract (Sharma et al. 2016).

pIC50: −log10 of the molar value.

Broadly, the pIC50 is the IC50 on a negative log10 scale, so that one unit is a factor of ten. Read a high pIC50 as a low IC50.

The target of test [1] is CDK2 (human) (UniProt P24941). Nature of the test: Enzyme Assay.
The target in test [2] is CDK2 (human) (UniProt P24941). The test can be described thus: Enzyme Assay. This is another data set of the same source.

Consider `CCNC1CCN(c2ccc(Nc3nc(N)c(C(=O)c4cccc(F)c4)s3)cc2)CC1`, for which the negative-log IC50 (pIC50) against CDK2 (human) [1] and against CDK2 (human) [2] was 6.00 throughout.
`Nc1nc(Nc2ccc(N3CCC(N4CCCC(O)C4)CC3)cc2)sc1C(=O)c1ccc(Cl)cc1` (stereo not given): the negative-log IC50 (pIC50) against CDK2 (human) [1] and on CDK2 (human) [2] was 5.00 throughout.
For `NC(=O)c1cc(C(=O)c2sc(Nc3ccc(N4CCC(N5CCCC5)CC4)cc3)nc2N)ccc1O`, the pIC50 against CDK2 (human) [1] and against CDK2 (human) [2] was 5.00 throughout.
Regarding `Nc1nc(Nc2ccc(N3CCC(N4CCCC(O)C4)CC3)cc2)sc1C(=O)c1ccc2c(c1)OCCO2` (stereo not given), the negative logarithm of the IC50 (pIC50) on CDK2 (human) [1] and on CDK2 (human) [2] was 5.84 throughout.
`CN(C)C1CCN(c2ccc(Nc3nc(N)c(C(=O)c4ccc([N+](=O)[O-])cc4)s3)cc2)CC1`: the pIC50 against CDK2 (human) [1] and on CDK2 (human) [2] was 5.00 in each case.
